Assay results: US20090226527A1, “Particulate-stabilized injectable pharmacutical compositions of posaconazole” (priority 2004, published 2009)
≈ marks a conversion by molar mass, not a printed value.

Test system: infectious agents (strains tested)
Assay: organism not typed
Type: cell-based

C[C@@H]1[C@H](O)[C@@H](C)/C=C/C=C/C=C/C=C/C=C/C=C/C=C/[C@H](O[C@@H]2O[C@H](C)[C@@H](O)[C@H](N)[C@@H]2O)C[C@@H]2O[C@](O)(C[C@@H](O)C[C@@H](O)[C@H](O)CC[C@@H](O)C[C@@H](O)CC(=O)O[C@H]1C)C[C@H](O)[C@H]2C(=O)O [Amphotericin]
MIC (Absidia spp, read-out: Geometric Mean MIC): 0.545 µg/mL (≈ 0.59 µM) | MIC (Absidia spp, read-out: MIC[90]): 0.25 to 2 µg/mL (≈ 0.271 to 2.16 µM) | MIC (Alternaria spp, read-out: Geometric Mean MIC): 0.852 µg/mL (≈ 0.922 µM) | MIC (Alternaria spp, read-out: MIC[90]): 4 µg/mL (≈ 4.33 µM) | MIC (Apophysomyces spp, read-out: Geometric Mean MIC): 0.5 µg/mL (≈ 0.541 µM) | MIC (Apophysomyces spp, read-out: MIC[90]): 0.031 to 4 µg/mL (≈ 0.0335 to 4.33 µM) | MIC (Aspergillus flavus, read-out: Geometric Mean MIC): 0.91 µg/mL (≈ 0.985 µM) | MIC (Aspergillus flavus, read-out: MIC[90]): 2 µg/mL (≈ 2.16 µM) | MIC (Aspergillus fumigatus, read-out: Geometric Mean MIC): 0.683 µg/mL (≈ 0.739 µM) | MIC (Aspergillus fumigatus, read-out: MIC[90]): 1 µg/mL (≈ 1.08 µM) | MIC (Aspergillus nidulans, read-out: Geometric Mean MIC): 0.758 µg/mL (≈ 0.82 µM) | MIC (Aspergillus nidulans, read-out: MIC[90]): 2 µg/mL (≈ 2.16 µM) | MIC (Aspergillus niger, read-out: Geometric Mean MIC): 0.36 µg/mL (≈ 0.39 µM) | MIC (Aspergillus niger, read-out: MIC[90]): 1 µg/mL (≈ 1.08 µM) | MIC (Aspergillus sydowii, read-out: Geometric Mean MIC): 1.26 µg/mL (≈ 1.36 µM) | MIC (Aspergillus sydowii, read-out: MIC[90]): 1 to 2 µg/mL (≈ 1.08 to 2.16 µM) | MIC (Aspergillus terreus, read-out: Geometric Mean MIC): 1.76 µg/mL (≈ 1.9 µM) | MIC (Aspergillus terreus, read-out: MIC[90]): 4 µg/mL (≈ 4.33 µM) | MIC (Aspergillus ustus, read-out: Geometric Mean MIC): 0.673 µg/mL (≈ 0.728 µM) | MIC (Aspergillus ustus, read-out: MIC[90]): 0.25 to 1 µg/mL (≈ 0.271 to 1.08 µM) | MIC (Bipolaris spp, read-out: Geometric Mean MIC): 0.25 µg/mL (≈ 0.271 µM) | MIC (Bipolaris spp, read-out: MIC[90]): 0.25 µg/mL (≈ 0.271 µM) | MIC (Bjerkandera adusta, read-out: Geometric Mean MIC): 0.215 µg/mL (≈ 0.233 µM) | MIC (Bjerkandera adusta, read-out: MIC[90]): 0.25 µg/mL (≈ 0.271 µM) | MIC (Blastomyces dermatitidis, read-out: Geometric Mean MIC): 0.153 µg/mL (≈ 0.166 µM) | MIC (Blastomyces dermatitidis, read-out: MIC[90]): 0.5 µg/mL (≈ 0.541 µM) | MIC (Candida albicans, read-out: Geometric Mean MIC): 0.686 µg/mL (≈ 0.742 µM) | MIC (Candida albicans, read-out: MIC[90]): 1 µg/mL (≈ 1.08 µM) | MIC (Candida dubliniensis, read-out: Geometric Mean MIC): 0.513 µg/mL (≈ 0.555 µM) | MIC (Candida dubliniensis, read-out: MIC[90]): 1 µg/mL (≈ 1.08 µM) | MIC (Candida tropicalis, read-out: Geometric Mean MIC): 0.774 µg/mL (≈ 0.838 µM) | MIC (Candida tropicalis, read-out: MIC[90]): 1 µg/mL (≈ 1.08 µM) | MIC (Clavispora lusitaniae, Candida lusitaniae, read-out: Geometric Mean MIC): 0.506 µg/mL (≈ 0.548 µM) | MIC (Clavispora lusitaniae, Candida lusitaniae, read-out: MIC[90]): 1 µg/mL (≈ 1.08 µM) | MIC (Coccidioides immitis, read-out: Geometric Mean MIC, Coccidioides immitis): 0.39 µg/mL (≈ 0.422 µM) | MIC (Coccidioides immitis, read-out: MIC[90], Coccidioides immitis): 0.5 µg/mL (≈ 0.541 µM) | MIC (Cryptococcus neoformans, read-out: Geometric Mean MIC): 0.667 µg/mL (≈ 0.722 µM) | MIC (Cryptococcus neoformans, read-out: MIC[90]): 1 µg/mL (≈ 1.08 µM) | MIC (Curvularia spp, read-out: Geometric Mean MIC): 0.5 µg/mL (≈ 0.541 µM) | MIC (Curvularia spp, read-out: MIC[90]): 0.5 µg/mL (≈ 0.541 µM) | MIC (Debaryomyces hansenii, Candida famata, read-out: Geometric Mean MIC): 0.841 µg/mL (≈ 0.91 µM) | MIC (Debaryomyces hansenii, Candida famata, read-out: MIC[90]): 2 µg/mL (≈ 2.16 µM) | MIC (Diutina rugosa, Candida rugosa, read-out: Geometric Mean MIC): 0.665 µg/mL (≈ 0.72 µM) | MIC (Diutina rugosa, Candida rugosa, read-out: MIC[90]): 1 µg/mL (≈ 1.08 µM) | MIC (Dujonia zeylanoides, Candida zeylanoides, read-out: Geometric Mean MIC): 1 µg/mL (≈ 1.08 µM) | MIC (Dujonia zeylanoides, Candida zeylanoides, read-out: MIC[90]): 1 µg/mL (≈ 1.08 µM) | MIC (Exophiala dermatidis, read-out: Geometric Mean MIC): 0.5 µg/mL (≈ 0.541 µM) | MIC (Exophiala dermatidis, read-out: MIC[90]): 0.5 µg/mL (≈ 0.541 µM) | MIC (Exophiala dermatitidis, Wangiella dermatitidis, read-out: Geometric Mean MIC): 0.63 µg/mL (≈ 0.682 µM) | MIC (Exophiala dermatitidis, Wangiella dermatitidis, read-out: MIC[90]): 0.25 to 1 µg/mL (≈ 0.271 to 1.08 µM) | MIC (Exophiala jeanselmei, read-out: Geometric Mean MIC): 0.66 µg/mL (≈ 0.714 µM) | MIC (Exophiala jeanselmei, read-out: MIC[90]): 1 µg/mL (≈ 1.08 µM) | MIC (Exophiala moniliae, read-out: Geometric Mean MIC): 0.177 µg/mL (≈ 0.192 µM) | MIC (Exophiala moniliae, read-out: MIC[90]): 0.125 to 0.25 µg/mL (≈ 0.135 to 0.271 µM) | MIC (Fonsecae pedrosoi, read-out: Geometric Mean MIC): 1 µg/mL (≈ 1.08 µM) | MIC (Fonsecae pedrosoi, read-out: MIC[90]): 1 µg/mL (≈ 1.08 µM) | MIC (Fusarium spp, read-out: Geometric Mean MIC): 1.2 µg/mL (≈ 1.3 µM) | MIC (Fusarium spp, read-out: MIC[90]): 2 µg/mL (≈ 2.16 µM) | MIC (Hansenula anomala, Pichia anomala, read-out: Geometric Mean MIC): 0.707 µg/mL (≈ 0.765 µM) | MIC (Hansenula anomala, Pichia anomala, read-out: MIC[90]): 1 µg/mL (≈ 1.08 µM) | MIC (Histoplasma capsulatum, read-out: Geometric Mean MIC, Histoplasma capsulatum): 0.25 µg/mL (≈ 0.271 µM) | MIC (Histoplasma capsulatum, read-out: MIC[90], Histoplasma capsulatum): 0.5 µg/mL (≈ 0.541 µM) | MIC (Kluyveromyces marxianus, Candida kefyr, read-out: Geometric Mean MIC): 0.779 µg/mL (≈ 0.843 µM) | MIC (Kluyveromyces marxianus, Candida kefyr, read-out: MIC[90]): 1 µg/mL (≈ 1.08 µM) | MIC (Kluyveromyces marxianus, read-out: Geometric Mean MIC): 1 µg/mL (≈ 1.08 µM) | MIC (Kluyveromyces marxianus, read-out: MIC[90]): 1 µg/mL (≈ 1.08 µM) | MIC (Lodderomyces parapsilosis, Candida parapsilosis, read-out: Geometric Mean MIC): 0.761 µg/mL (≈ 0.824 µM) | MIC (Lodderomyces parapsilosis, Candida parapsilosis, read-out: MIC[90]): 1 µg/mL (≈ 1.08 µM) | MIC (Meyerozyma guilliermondii, Candida guilliermondii, read-out: Geometric Mean MIC): 0.553 µg/mL (≈ 0.598 µM) | MIC (Meyerozyma guilliermondii, Candida guilliermondii, read-out: MIC[90]): 1 µg/mL (≈ 1.08 µM) | MIC (Mucor spp, read-out: Geometric Mean MIC): 0.274 µg/mL (≈ 0.297 µM) | MIC (Mucor spp, read-out: MIC[90]): 1 µg/mL (≈ 1.08 µM) | MIC (Nakaseomyces glabratus, Candida glabrata, read-out: Geometric Mean MIC): 0.798 µg/mL (≈ 0.864 µM) | MIC (Nakaseomyces glabratus, Candida glabrata, read-out: MIC[90]): 1 µg/mL (≈ 1.08 µM) | MIC (Paecilomyces spp, read-out: Geometric Mean MIC): 1.1 µg/mL (≈ 1.19 µM) | MIC (Paecilomyces spp, read-out: MIC[90]): 16 µg/mL (≈ 17.3 µM) | MIC (Papiliotrema laurentii, Cryptococcus laurentii, read-out: Geometric Mean MIC): 0.794 µg/mL (≈ 0.859 µM) | MIC (Papiliotrema laurentii, Cryptococcus laurentii, read-out: MIC[90]): 0.5 to 1 µg/mL (≈ 0.541 to 1.08 µM) | MIC (Paracoccidioides brasiliensis, read-out: Geometric Mean MIC, Paracoccidioides brasiliensis): 0.096 µg/mL (≈ 0.104 µM) | MIC (Paracoccidioides brasiliensis, read-out: MIC[90], Paracoccidioides brasiliensis): 0.25 µg/mL (≈ 0.271 µM) | MIC (Penicillium spp, read-out: Geometric Mean MIC): 1.02 µg/mL (≈ 1.11 µM) | MIC (Penicillium spp, read-out: MIC[90]): 4 µg/mL (≈ 4.33 µM) | MIC (Pichia etchel, read-out: Geometric Mean MIC): 0.063 µg/mL (≈ 0.0682 µM) | MIC (Pichia etchel, read-out: MIC[90]): 0.063 µg/mL (≈ 0.0682 µM) | MIC (Pichia kudriavzevii, Candida krusei, read-out: Geometric Mean MIC): 0.976 µg/mL (≈ 1.06 µM) | MIC (Pichia kudriavzevii, Candida krusei, read-out: MIC[90]): 2 µg/mL (≈ 2.16 µM) | MIC (Pleurothecium obovoideum, Ramichloridium obovoideum, read-out: Geometric Mean MIC): 1 µg/mL (≈ 1.08 µM) | MIC (Pleurothecium obovoideum, Ramichloridium obovoideum, read-out: MIC[90]): 1 µg/mL (≈ 1.08 µM) | MIC (Rhizomucor spp, read-out: Geometric Mean MIC): 0.063 µg/mL (≈ 0.0682 µM) | MIC (Rhizomucor spp, read-out: MIC[90]): 0.063 µg/mL (≈ 0.0682 µM) | MIC (Rhizopus spp, read-out: Geometric Mean MIC): 0.635 µg/mL (≈ 0.687 µM) | MIC (Rhizopus spp, read-out: MIC[90]): 2 µg/mL (≈ 2.16 µM) | MIC (Saccharomyces cerevisiae, read-out: Geometric Mean MIC): 0.775 µg/mL (≈ 0.839 µM) | MIC (Saccharomyces cerevisiae, read-out: MIC[90]): 1 µg/mL (≈ 1.08 µM) | MIC (Scedosporium apiospermum, read-out: Geometric Mean MIC): 2.27 µg/mL (≈ 2.46 µM) | MIC (Scedosporium apiospermum, read-out: MIC[90]): 8 µg/mL (≈ 8.66 µM) | MIC (Scedosporium boydii, Pseudallescheria boydii, read-out: Geometric Mean MIC): 1.72 µg/mL (≈ 1.86 µM) | MIC (Scedosporium boydii, Pseudallescheria boydii, read-out: MIC[90]): 4 µg/mL (≈ 4.33 µM) | MIC (Sporothrix schenckii, read-out: Geometric Mean MIC): 0.574 µg/mL (≈ 0.621 µM) | MIC (Sporothrix schenckii, read-out: MIC[90]): 1 µg/mL (≈ 1.08 µM) | MIC (Trichophyton mentagrophytes, read-out: Geometric Mean MIC): 1 µg/mL (≈ 1.08 µM) | MIC (Trichophyton mentagrophytes, read-out: MIC[90]): 1 µg/mL (≈ 1.08 µM) | MIC (Trichophyton tonsurans, read-out: Geometric Mean MIC): 1.26 µg/mL (≈ 1.36 µM) | MIC (Trichophyton tonsurans, read-out: MIC[90]): 0.5 to 8 µg/mL (≈ 0.541 to 8.66 µM) | MIC (Trichosporon spp, read-out: Geometric Mean MIC): 1.32 µg/mL (≈ 1.43 µM) | MIC (Trichosporon spp, read-out: MIC[90]): 1 to 2 µg/mL (≈ 1.08 to 2.16 µM) | MIC (Yarrowia lipolytica, read-out: Geometric Mean MIC): 0.5 µg/mL (≈ 0.541 µM) | MIC (Yarrowia lipolytica, read-out: MIC[90]): 0.5 µg/mL (≈ 0.541 µM)
